Results on 1 compound are retold here after ChEMBL document CHEMBL2074185, “Differential effects of the breast cancer resistance protein on the cellular accumulation and cytotoxicity of 9-aminocamptothecin and 9-nitrocamptothecin” (Cancer Res, 2003).

The target of the data set is T1, Broad substrate specificity ATP-binding cassette transporter ABCG2 (Homo sapiens, UniProt Q9UNQ0).
T1 sequence (Q9UNQ0 whole entry): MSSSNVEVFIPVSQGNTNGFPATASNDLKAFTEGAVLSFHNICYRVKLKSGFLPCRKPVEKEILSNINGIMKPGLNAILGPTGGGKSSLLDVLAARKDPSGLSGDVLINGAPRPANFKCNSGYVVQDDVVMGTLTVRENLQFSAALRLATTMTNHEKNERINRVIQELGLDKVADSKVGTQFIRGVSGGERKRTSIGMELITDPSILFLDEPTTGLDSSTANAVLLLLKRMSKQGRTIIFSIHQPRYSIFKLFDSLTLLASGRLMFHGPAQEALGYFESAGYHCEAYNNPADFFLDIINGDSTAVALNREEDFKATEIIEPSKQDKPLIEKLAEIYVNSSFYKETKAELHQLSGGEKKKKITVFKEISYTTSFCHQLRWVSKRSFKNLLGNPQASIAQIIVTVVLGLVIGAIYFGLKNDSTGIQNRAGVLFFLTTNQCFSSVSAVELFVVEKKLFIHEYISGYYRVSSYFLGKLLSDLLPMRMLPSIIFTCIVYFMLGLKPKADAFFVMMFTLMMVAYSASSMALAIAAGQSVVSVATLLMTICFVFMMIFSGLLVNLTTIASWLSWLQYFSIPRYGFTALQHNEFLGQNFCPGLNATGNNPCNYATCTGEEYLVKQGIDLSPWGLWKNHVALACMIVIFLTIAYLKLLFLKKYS
The experiment in a line: TP_TRANSPORTER: uptake in BCRP-expressing HEK293 cells. The class given is functional, cell-based.

With `CC[C@@]1(O)C(=O)OCc2c1cc1n(c2=O)Cc2cc3c(N)cccc3nc2-1` [9-AMINOCAMPTOTHECIN], the Activity result is “substrate []”.
